The text below walks through data of ChEMBL document CHEMBL5465560, “Selectivity Literature for EUbOPEN Chemogenomic Library” (2024).

As usually defined, the Ki is a dissociation constant, usually derived from enzyme kinetics or from competition with a known ligand. As a reminder, the IC50 is the concentration at which inhibition is half-maximal. Low values mean higher potency, high ones lower potency.

The structures appear in SMILES notation. Where only a bound is given, the exact number is not on record here.

Assay [1] has as its target Mu-type opioid receptor (Homo sapiens, UniProt P35372). The assay is described as follows: Selectivity interaction (Panel of kinases, GPCRs, ion channels and transporters (enzymatic assay)) EUB0000266bCl OPRM1.
Assay [2] addresses Tyrosine-protein kinase Lck (Homo sapiens, UniProt P06239). Briefly: Selectivity interaction (Ambit KINOMEscan and KiNATiv profiling in Jurkat cells) EUB0000090b LCK. The following applies: at 1 µM. The assay is classed as cell-based.
Assay [3] concerns the target Platelet-derived growth factor receptor beta (Homo sapiens, UniProt P09619). The assay is described as follows: Selectivity interaction (KinomeScan (DiscoverX)) EUB0000699a PDGFRB. To be noted: at 10 µM.
Assay [4] has as its target Calcium/calmodulin-dependent protein kinase type 1G (Homo sapiens) (UniProt Q96NX5). The assay is described as follows: Selectivity interaction (KinomeScan (DiscoverX)) EUB0001049a CAMK1G. To be noted: at 1 µM.
For assay [5], the system named is Receptor-type tyrosine-protein kinase FLT3 (Homo sapiens), P36888 [UNDEFINED MUTATION]. Briefly: Selectivity interaction (KinomeScan (DiscoverX)) EUB0000695a FLT3. To be noted: at 100 nM.
Assay [6] addresses Tyrosine-protein kinase JAK2 (Homo sapiens, UniProt O60674). The assay is described as follows: Selectivity interaction (Kinase counterscreening (biochemical assay)) EUB0000604a JAK2. (Counterscreens check selectivity or assay interference.)
Assay [7] deals with T1, Cyclin-G-associated kinase (Homo sapiens) (UniProt O14976).
T1 sequence (whole entry): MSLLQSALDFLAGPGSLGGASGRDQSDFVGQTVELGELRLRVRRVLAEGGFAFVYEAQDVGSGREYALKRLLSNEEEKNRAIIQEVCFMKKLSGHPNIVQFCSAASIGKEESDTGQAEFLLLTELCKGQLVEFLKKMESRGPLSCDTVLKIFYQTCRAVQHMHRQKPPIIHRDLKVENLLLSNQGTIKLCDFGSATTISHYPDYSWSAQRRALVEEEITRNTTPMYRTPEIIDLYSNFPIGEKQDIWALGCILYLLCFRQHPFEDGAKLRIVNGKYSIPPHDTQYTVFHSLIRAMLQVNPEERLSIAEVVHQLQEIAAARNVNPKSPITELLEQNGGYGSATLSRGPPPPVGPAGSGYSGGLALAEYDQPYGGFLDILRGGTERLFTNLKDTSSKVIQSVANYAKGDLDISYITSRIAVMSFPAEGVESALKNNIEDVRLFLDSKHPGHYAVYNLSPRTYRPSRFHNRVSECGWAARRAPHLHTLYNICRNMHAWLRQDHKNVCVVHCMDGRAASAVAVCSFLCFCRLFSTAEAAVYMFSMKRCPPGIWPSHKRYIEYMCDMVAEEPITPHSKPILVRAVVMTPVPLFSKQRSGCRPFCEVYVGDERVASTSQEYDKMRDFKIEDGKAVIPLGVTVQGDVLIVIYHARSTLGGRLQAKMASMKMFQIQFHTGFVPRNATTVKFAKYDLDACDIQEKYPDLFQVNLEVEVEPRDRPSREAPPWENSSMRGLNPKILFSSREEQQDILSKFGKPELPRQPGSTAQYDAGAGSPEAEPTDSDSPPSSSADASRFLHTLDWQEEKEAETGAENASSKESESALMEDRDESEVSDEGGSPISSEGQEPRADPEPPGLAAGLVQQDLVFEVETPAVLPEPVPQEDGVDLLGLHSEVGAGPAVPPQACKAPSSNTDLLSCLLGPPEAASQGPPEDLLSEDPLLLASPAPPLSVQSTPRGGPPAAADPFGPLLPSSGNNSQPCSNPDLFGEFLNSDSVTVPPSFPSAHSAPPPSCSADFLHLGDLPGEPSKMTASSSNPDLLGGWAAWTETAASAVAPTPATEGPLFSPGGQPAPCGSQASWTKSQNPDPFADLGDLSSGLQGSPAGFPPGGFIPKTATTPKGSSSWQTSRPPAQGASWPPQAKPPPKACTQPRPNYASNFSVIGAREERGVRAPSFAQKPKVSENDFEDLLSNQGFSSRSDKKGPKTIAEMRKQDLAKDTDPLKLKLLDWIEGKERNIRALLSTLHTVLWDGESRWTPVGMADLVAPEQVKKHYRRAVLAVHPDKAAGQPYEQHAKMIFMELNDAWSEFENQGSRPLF
The assay is described as follows: Selectivity interaction (LanthaScreen Eu Kinase Binding Assay) EUB0001632a GAK. The following applies: at 10 µM. (In general: Time-resolved FRET reads energy transfer from a long-lived donor to a nearby acceptor.)

In assay [8] the target is Fibroblast growth factor receptor 2 (Homo sapiens) (UniProt P21802). Briefly: Selectivity interaction (SelectScreen profiling (Invitrogen)) EUB0000607a FGFR2. To be noted: at 2 µM.
Sequence of Fibroblast growth factor receptor 2 (Homo sapiens) (P21802 22-821 limits assumed): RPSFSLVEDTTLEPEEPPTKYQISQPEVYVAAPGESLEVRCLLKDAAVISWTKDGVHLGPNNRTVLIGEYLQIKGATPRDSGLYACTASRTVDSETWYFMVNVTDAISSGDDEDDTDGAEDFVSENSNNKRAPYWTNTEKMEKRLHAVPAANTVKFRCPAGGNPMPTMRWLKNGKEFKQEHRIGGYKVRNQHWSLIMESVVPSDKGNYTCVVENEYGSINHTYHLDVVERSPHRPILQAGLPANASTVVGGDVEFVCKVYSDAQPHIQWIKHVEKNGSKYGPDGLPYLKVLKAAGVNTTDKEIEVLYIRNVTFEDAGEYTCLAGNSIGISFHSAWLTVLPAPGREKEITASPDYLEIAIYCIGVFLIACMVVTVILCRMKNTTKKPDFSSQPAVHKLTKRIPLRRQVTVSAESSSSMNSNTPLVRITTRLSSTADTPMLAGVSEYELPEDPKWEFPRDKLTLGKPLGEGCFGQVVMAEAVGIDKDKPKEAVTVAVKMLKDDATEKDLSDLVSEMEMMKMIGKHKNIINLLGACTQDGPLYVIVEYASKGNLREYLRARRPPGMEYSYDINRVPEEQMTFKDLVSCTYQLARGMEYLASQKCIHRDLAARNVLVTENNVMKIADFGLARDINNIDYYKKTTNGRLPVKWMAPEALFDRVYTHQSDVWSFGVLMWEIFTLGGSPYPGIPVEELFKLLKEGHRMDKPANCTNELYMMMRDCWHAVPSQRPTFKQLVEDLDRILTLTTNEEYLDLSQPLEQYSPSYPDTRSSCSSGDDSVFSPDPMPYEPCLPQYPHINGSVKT
Assay [9] addresses T2, Dual specificity protein kinase TTK (Homo sapiens) (UniProt P33981).
T2 sequence (whole entry): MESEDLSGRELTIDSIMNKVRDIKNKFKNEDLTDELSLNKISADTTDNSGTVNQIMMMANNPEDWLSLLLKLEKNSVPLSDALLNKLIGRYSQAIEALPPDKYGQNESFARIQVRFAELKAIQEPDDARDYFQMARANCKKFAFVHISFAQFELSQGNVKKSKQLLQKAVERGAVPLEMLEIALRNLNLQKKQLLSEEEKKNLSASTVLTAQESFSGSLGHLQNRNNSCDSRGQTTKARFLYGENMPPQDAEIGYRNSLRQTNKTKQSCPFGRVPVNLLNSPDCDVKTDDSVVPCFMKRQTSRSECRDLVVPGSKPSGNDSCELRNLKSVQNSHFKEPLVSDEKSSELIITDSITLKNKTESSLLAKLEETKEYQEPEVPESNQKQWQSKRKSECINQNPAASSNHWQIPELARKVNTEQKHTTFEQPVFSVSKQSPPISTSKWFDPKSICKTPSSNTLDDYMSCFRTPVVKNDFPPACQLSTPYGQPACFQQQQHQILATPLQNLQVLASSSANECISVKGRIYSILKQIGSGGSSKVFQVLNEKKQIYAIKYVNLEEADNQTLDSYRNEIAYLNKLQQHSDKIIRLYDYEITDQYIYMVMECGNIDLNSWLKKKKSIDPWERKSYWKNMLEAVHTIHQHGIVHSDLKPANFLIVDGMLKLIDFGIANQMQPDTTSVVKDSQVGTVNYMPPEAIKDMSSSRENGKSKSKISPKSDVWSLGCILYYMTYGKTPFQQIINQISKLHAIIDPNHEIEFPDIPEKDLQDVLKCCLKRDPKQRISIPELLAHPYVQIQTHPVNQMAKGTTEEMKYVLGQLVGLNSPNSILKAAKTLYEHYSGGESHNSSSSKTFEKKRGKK
Briefly: Selectivity interaction (KinomeScan (DiscoverX)) EUB0000229b TTK. The following applies: at 10 µM.

Assay [10] deals with ALK tyrosine kinase receptor (Homo sapiens, UniProt Q9UM73). Briefly: Selectivity interaction (Kinase panel (33PanQinase(R) Activity Assay)) EUB0000877a ALK.
Assay [11] deals with Ribosomal protein S6 kinase alpha-5 (Homo sapiens) (UniProt O75582). The assay is described as follows: Selectivity interaction (ActivX KiNativ screen (ex vivo kinase selectivity in human PBMCs)) EUB0001619a RPS6KA5. The assay is classed as cell-based. The following applies: PBMC, at 1 µM.
The target in assay [12] is Proto-oncogene tyrosine-protein kinase Src (Homo sapiens, UniProt P12931). The assay is described as follows: Selectivity interaction (KinomeScan (DiscoverX)) EUB0001619a SRC. The following applies: at 1 µM.
Sequence of Proto-oncogene tyrosine-protein kinase Src (P12931 2-536 limits assumed): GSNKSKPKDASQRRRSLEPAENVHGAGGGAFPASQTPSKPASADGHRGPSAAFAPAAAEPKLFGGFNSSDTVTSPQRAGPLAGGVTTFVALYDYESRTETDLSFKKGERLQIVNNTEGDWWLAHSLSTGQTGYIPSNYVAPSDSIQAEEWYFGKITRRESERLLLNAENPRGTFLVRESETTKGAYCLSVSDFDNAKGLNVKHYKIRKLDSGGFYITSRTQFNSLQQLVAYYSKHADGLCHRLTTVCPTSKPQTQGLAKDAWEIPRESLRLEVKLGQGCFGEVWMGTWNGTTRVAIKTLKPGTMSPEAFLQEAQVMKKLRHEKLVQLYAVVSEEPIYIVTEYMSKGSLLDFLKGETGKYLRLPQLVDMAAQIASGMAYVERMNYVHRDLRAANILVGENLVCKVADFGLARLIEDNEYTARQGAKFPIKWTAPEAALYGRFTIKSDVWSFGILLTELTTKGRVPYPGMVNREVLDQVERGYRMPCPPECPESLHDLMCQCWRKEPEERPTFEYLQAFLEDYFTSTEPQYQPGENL

Sequence of Calcium/calmodulin-dependent protein kinase type 1G (Homo sapiens) (Q96NX5 whole entry): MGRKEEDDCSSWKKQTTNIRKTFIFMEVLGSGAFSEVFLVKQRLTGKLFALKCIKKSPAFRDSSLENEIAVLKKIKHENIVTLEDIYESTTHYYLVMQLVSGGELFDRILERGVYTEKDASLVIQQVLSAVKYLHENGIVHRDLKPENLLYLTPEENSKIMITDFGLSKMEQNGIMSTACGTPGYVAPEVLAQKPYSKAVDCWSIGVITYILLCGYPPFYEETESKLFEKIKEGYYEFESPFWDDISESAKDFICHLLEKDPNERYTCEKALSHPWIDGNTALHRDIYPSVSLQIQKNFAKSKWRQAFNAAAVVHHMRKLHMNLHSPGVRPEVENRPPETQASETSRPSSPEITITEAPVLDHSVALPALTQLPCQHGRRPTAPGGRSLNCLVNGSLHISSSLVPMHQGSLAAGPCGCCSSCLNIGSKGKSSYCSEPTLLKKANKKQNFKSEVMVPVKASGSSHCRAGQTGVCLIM
Sequence of Mu-type opioid receptor (P35372 whole entry): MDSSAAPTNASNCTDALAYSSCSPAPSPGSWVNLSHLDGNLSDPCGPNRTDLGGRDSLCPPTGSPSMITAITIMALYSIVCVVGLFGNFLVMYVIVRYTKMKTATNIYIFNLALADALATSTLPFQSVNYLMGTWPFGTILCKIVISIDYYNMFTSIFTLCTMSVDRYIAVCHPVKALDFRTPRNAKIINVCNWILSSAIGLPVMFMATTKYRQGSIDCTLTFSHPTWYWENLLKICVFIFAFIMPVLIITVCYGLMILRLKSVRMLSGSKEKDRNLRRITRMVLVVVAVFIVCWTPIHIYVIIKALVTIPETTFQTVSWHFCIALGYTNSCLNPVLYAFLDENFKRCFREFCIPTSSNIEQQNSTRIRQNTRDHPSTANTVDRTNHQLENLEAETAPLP
Sequence of Platelet-derived growth factor receptor beta (P09619 whole entry): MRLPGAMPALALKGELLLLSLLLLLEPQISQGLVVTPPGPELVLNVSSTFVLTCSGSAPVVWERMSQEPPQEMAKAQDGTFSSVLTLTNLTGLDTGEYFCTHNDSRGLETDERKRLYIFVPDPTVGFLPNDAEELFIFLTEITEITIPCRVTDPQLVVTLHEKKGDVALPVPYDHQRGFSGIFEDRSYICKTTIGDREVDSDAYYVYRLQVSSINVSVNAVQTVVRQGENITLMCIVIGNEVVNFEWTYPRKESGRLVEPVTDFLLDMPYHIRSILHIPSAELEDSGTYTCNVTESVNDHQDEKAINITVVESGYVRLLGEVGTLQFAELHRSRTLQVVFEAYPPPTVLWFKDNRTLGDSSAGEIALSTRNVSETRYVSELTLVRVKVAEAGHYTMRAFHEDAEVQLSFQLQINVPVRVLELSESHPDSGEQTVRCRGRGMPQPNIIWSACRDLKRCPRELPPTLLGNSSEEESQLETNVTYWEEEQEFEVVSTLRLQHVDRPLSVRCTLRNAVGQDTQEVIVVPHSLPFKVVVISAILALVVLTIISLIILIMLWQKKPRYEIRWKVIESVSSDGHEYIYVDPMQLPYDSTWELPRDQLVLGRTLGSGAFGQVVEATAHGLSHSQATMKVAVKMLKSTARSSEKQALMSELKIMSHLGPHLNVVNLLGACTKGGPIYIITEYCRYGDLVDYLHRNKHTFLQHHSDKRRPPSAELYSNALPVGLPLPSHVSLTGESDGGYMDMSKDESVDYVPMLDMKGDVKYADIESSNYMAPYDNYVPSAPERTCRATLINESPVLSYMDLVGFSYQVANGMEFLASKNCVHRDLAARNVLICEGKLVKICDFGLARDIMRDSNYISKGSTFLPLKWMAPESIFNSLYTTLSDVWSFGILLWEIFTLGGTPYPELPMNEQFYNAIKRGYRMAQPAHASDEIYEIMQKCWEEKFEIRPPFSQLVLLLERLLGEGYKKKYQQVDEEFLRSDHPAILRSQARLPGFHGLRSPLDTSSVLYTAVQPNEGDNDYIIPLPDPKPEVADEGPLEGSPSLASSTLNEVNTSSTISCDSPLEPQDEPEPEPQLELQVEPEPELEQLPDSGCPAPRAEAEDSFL
Sequence of Tyrosine-protein kinase JAK2 (O60674 whole entry): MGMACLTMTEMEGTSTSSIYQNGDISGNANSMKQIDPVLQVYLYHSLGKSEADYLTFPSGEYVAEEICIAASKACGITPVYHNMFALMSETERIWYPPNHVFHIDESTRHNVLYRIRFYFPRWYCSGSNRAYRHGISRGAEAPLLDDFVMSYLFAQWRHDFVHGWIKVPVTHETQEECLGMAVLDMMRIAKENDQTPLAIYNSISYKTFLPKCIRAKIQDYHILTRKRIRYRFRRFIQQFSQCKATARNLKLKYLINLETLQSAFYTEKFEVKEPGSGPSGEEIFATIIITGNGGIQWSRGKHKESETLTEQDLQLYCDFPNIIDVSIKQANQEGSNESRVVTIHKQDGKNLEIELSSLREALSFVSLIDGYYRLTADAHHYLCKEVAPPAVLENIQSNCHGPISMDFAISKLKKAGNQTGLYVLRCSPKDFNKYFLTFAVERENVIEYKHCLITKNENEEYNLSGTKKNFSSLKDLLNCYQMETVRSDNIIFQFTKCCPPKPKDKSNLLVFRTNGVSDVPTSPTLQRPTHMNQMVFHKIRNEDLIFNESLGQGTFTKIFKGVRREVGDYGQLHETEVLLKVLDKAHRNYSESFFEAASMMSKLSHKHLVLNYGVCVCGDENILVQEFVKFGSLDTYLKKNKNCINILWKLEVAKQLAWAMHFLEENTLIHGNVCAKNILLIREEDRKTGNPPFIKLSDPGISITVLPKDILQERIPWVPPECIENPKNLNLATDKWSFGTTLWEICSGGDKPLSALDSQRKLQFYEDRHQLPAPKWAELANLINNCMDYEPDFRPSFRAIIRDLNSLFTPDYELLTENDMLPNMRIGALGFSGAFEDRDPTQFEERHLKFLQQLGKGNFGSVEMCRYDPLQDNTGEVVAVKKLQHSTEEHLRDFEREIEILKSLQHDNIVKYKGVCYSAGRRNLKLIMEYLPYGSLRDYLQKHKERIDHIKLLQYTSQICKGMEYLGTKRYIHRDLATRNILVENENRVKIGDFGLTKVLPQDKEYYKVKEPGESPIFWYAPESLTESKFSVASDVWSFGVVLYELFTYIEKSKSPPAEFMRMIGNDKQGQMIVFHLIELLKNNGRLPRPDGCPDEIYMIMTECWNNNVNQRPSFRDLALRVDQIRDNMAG
Sequence of Tyrosine-protein kinase Lck (P06239 2-509 limits assumed): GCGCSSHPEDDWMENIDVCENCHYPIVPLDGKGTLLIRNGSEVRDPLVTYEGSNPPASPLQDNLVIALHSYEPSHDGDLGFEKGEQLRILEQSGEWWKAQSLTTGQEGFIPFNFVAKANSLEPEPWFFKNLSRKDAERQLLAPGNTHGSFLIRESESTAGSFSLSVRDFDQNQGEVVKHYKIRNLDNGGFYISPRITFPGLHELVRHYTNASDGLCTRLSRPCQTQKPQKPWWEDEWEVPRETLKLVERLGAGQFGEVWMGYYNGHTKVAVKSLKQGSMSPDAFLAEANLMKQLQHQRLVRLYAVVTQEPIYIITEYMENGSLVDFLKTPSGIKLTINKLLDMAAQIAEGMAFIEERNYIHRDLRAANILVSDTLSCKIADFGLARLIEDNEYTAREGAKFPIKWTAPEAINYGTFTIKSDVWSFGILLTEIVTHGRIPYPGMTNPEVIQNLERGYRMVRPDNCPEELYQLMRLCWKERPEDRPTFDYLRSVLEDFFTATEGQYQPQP

As for `CCn1c(-c2nc3cc(C(=O)N4CCCC(N)C4)ccc3n2C)cc2ccccc21` (configuration not stated), the pXC50 in assay [1] was less than 4 M. Regarding `CN(C)C/C=C/C(=O)Nc1ccc(C(=O)N2CCCC(Nc3ncc(Cl)c(-c4c[nH]c5ccccc45)n3)C2)cc1` (configuration not stated), the % of control in [2] stood at 84%. `CCN(CC)CCCCNc1ncc2cc(-c3cc(OC)cc(OC)c3)c(NC(=O)NC(C)(C)C)nc2n1` registered a % of control in [3] of 38%. With `COc1cc(Nc2nc(C)cc(-c3cnn4nc(OC)ccc34)n2)cc(C(F)(F)F)c1`, the % of control in assay [4] was 95%. In the case of `Cc1cc(F)c(C(=O)Nc2cccc(-c3nncn3C(C)C)n2)cc1-n1cnc(C2CC2)c1`, the % of control in assay [5] was found to be 76%. In assay [6], `Cc1cnc(Nc2ccc(F)cc2Cl)nc1-c1c[nH]c(C(=O)N[C@H](CO)c2cccc(Cl)c2)c1` yielded a Ki greater than 4 µM. With `Cn1cc(-n2cnc3c(NCc4nc5cc(Cl)c(Cl)cc5[nH]4)nc(N4CCOCC4)nc32)cn1`, in [7], the % of inhibition was -16.7%. For `CNC(=O)Nc1ccc(-c2nc(N3CC4CCC(C3)O4)c3cnn(C4CCC5(CC4)OCCO5)c3n2)cc1`, the % of inhibition in assay [8] stood at 4%. The compound `COc1cc(N(C)c2ccnc3ccc(C(F)(F)F)cc23)cc(OC)c1OC` showed a % binding in assay [9] of 60%. Take `CCC(=O)N1CC[C@H](Nc2ncnc3c2CN(c2cnc(OC)c(C(F)(F)F)c2)CC3)C1` [LENIOLISIB]: the IC50 in assay [10] was greater than 10 µM. For `N#Cc1cccc(-c2c[nH]c3ncnc(N4CCOCC4)c23)c1`, the % of inhibition in [11] is -4%. The compound further showed a % of control in assay [12] of 100%.
